Source: patent US6706740B2, “Fungicidal heterocyclic aromatic amides and their compositions, methods of use and preparation” (Dow AgroSciences LLC, priority 1999, dated 2004)

Test system: Magnaporthe grisea (Pyricularia oryzae—PYRIOR)
Assay: microbe, parasite or virus in culture
Format: cell-based
Conditions: Pyricularia oryzae, read-out: PYRIOR in vitro Growth Inhibition

Which inhibition at 25 ppm does the source give for `COc1ccnc(C(=O)Nc2cccc(Sc3ccc(C(F)(F)F)cc3)c2)c1O` [Compound 444] here?
Its inhibition at 25 ppm is under 80%.

Which inhibition at 25 ppm does the source give for `Cc1nc(O)c(C(=O)N[C@H]2COC(=O)[C@H](Cc3ccccc3)[C@@H](OC(=O)C(C)C)[C@H](C)OC2=O)nc1C` [Compound 536] here?
The inhibition at 25 ppm was under 80%.

With `COCCC(=O)Oc1c(OC)ccnc1C(=O)Nc1ccc(C(=O)Nc2cccc(C(F)(F)F)c2)cc1` [Compound 713] as the compound, how does the inhibition at 25 ppm read?
Its inhibition at 25 ppm is under 80%.

Test system: Phytophthora infestans (PHYTIN)
Assay: microbe, parasite or virus in culture
Format: cell-based
Conditions: Phytophthora infestans, read-out: PHYTIN in vitro Growth Inhibition

For `COc1ccnc(C(=O)Nc2cccc(Sc3ccc(C(F)(F)F)cc3)c2)c1O` [Compound 444], which inhibition at 25 ppm is on record?
The inhibition at 25 ppm was under 80%.

Which inhibition at 25 ppm does the source give for `Cc1nc(O)c(C(=O)N[C@H]2COC(=O)[C@H](Cc3ccccc3)[C@@H](OC(=O)C(C)C)[C@H](C)OC2=O)nc1C` [Compound 536] here?
The inhibition at 25 ppm was under 80%.

With `COCCC(=O)Oc1c(OC)ccnc1C(=O)Nc1ccc(C(=O)Nc2cccc(C(F)(F)F)c2)cc1` [Compound 713] as the compound, how does the inhibition at 25 ppm read?
The inhibition at 25 ppm was under 80%.

Test system: Stagonospora nodorum (Leptosphaeria nodorum—LEPTNO)
Assay: In vitro fungal growth inhibition, Stagonospora nodorum (LEPTNO)
Format: cell-based
Conditions: Leptosphaeria; 25 ppm in growth medium; read-out: LEPTNO in vitro Growth Inhibition

For `COc1ccnc(C(=O)Nc2cccc(Sc3ccc(C(F)(F)F)cc3)c2)c1O` [Compound 444], which inhibition at 25 ppm is on record?
The inhibition at 25 ppm was under 80%.

Which inhibition at 25 ppm does the source give for `COCCC(=O)Oc1c(OC)ccnc1C(=O)Nc1ccc(C(=O)Nc2cccc(C(F)(F)F)c2)cc1` [Compound 713] here?
The inhibition at 25 ppm was under 80%.

Same assay, conditions: Leptosphaeria; 25 ppm in the growth medium; read-out: LEPTNO in vitro Growth Inhibition

With `Cc1nc(O)c(C(=O)N[C@H]2COC(=O)[C@H](Cc3ccccc3)[C@@H](OC(=O)C(C)C)[C@H](C)OC2=O)nc1C` [Compound 536] as the compound, how does the inhibition at 25 ppm read?
The inhibition at 25 ppm was under 80%.

Test system: Septoria tritici—SEPTTR
Assay: Leaf Blotch of Wheat, in vivo whole plant, 24 Hour Protectant
Conditions: Zymoseptoria tritici, 24 h, 100 ppm spray, wheat, 24 hour protectant, % control of fungal infection vs untreated plants; read-out: SEPTTR in vivo 1 Day Protectant

For `COCCC(=O)Oc1c(OC)ccnc1C(=O)Nc1ccc(C(=O)Nc2cccc(C(F)(F)F)c2)cc1` [Compound 713], which pest or weed control at 100 ppm is on record?
The pest or weed control at 100 ppm was under 25%.

Same assay, conditions: Zymoseptoria tritici, 24 h, 100 ppm spray, wheat, 24 hour protectant; control of fungal infection vs untreated plants; read-out: SEPTTR in vivo 1 Day Protectant

For `COc1ccnc(C(=O)Nc2cccc(Sc3ccc(C(F)(F)F)cc3)c2)c1O` [Compound 444], which pest or weed control at 100 ppm is on record?
Its pest or weed control at 100 ppm is 25 to 74%.

Same assay, conditions: Zymoseptoria tritici, 24 h, wheat plants sprayed at 100 ppm, inoculated after 24 hours; control of fungal infection vs untreated plants; read-out: SEPTTR in vivo 1 Day Protectant

For `Cc1nc(O)c(C(=O)N[C@H]2COC(=O)[C@H](Cc3ccccc3)[C@@H](OC(=O)C(C)C)[C@H](C)OC2=O)nc1C` [Compound 536], which pest or weed control at 100 ppm is on record?
Its pest or weed control at 100 ppm is 25 to 74%.

Test system: Leptosphaeria nodorum—LEPTNO
Assay: Glume Blotch of Wheat, in vivo whole plant, 24 Hour Protectant
Conditions: Leptosphaeria; 100 ppm spray, wheat, 24 hour protectant, % control of fungal infection vs untreated plants; read-out: LEPTNO in vivo 1 Day Protectant

Which pest or weed control at 100 ppm does the source give for `COCCC(=O)Oc1c(OC)ccnc1C(=O)Nc1ccc(C(=O)Nc2cccc(C(F)(F)F)c2)cc1` [Compound 713] here?
The pest or weed control at 100 ppm was 25 to 74%.

Same assay, conditions: Leptosphaeria; 100 ppm spray, wheat, 24 hour protectant; control of fungal infection vs untreated plants; read-out: LEPTNO in vivo 1 Day Protectant

For `COc1ccnc(C(=O)Nc2cccc(Sc3ccc(C(F)(F)F)cc3)c2)c1O` [Compound 444], which pest or weed control at 100 ppm is on record?
The pest or weed control at 100 ppm was 25 to 74%.

Same assay, conditions: wheat plants sprayed at 100 ppm, inoculated after 24 hours; control of fungal infection vs untreated plants

With `Cc1nc(O)c(C(=O)N[C@H]2COC(=O)[C@H](Cc3ccccc3)[C@@H](OC(=O)C(C)C)[C@H](C)OC2=O)nc1C` [Compound 536] as the compound, how does the “LEPTNO in vivo 1 Day Protectant” value read?
The value was “+ +”.

Test system: Rhizoctonia solani (RHIZSO)
Assay: microbe, parasite or virus in culture
Format: cell-based
Conditions: Rhizoctonia solani, read-out: RHIZSO in vitro Growth Inhibition

For `COc1ccnc(C(=O)Nc2cccc(Sc3ccc(C(F)(F)F)cc3)c2)c1O` [Compound 444], which inhibition at 25 ppm is on record?
The inhibition at 25 ppm was under 80%.

For `Cc1nc(O)c(C(=O)N[C@H]2COC(=O)[C@H](Cc3ccccc3)[C@@H](OC(=O)C(C)C)[C@H](C)OC2=O)nc1C` [Compound 536], which inhibition at 25 ppm is on record?
Its inhibition at 25 ppm is under 80%.

With `COCCC(=O)Oc1c(OC)ccnc1C(=O)Nc1ccc(C(=O)Nc2cccc(C(F)(F)F)c2)cc1` [Compound 713] as the compound, how does the inhibition at 25 ppm read?
Its inhibition at 25 ppm is under 80%.

Test system: not given
Assay: not given
Conditions: not given

Which melting point does the source give for `COc1ccnc(C(=O)Nc2cccc(Sc3ccc(C(F)(F)F)cc3)c2)c1O` [Compound 444] here?
The melting point was 133 to 134 °C.

Which melting point does the source give for `Cc1nc(O)c(C(=O)N[C@H]2COC(=O)[C@H](Cc3ccccc3)[C@@H](OC(=O)C(C)C)[C@H](C)OC2=O)nc1C` [Compound 536] here?
The melting point was 80 to 83 °C.

With `COCCC(=O)Oc1c(OC)ccnc1C(=O)Nc1ccc(C(=O)Nc2cccc(C(F)(F)F)c2)cc1` [Compound 713] as the compound, how does the melting point read?
The melting point was 164 to 167 °C.

Test system: Ustilago maydis (USTIMA)
Assay: microbe, parasite or virus in culture
Format: cell-based
Conditions: Mycosarcoma maydis, read-out: USTIMA in vitro Growth Inhibition

For `COc1ccnc(C(=O)Nc2cccc(Sc3ccc(C(F)(F)F)cc3)c2)c1O` [Compound 444], which inhibition at 25 ppm is on record?
The inhibition at 25 ppm was under 80%.

For `Cc1nc(O)c(C(=O)N[C@H]2COC(=O)[C@H](Cc3ccccc3)[C@@H](OC(=O)C(C)C)[C@H](C)OC2=O)nc1C` [Compound 536], which inhibition at 25 ppm is on record?
Its inhibition at 25 ppm is under 80%.

With `COCCC(=O)Oc1c(OC)ccnc1C(=O)Nc1ccc(C(=O)Nc2cccc(C(F)(F)F)c2)cc1` [Compound 713] as the compound, how does the inhibition at 25 ppm read?
The inhibition at 25 ppm was under 80%.

Test system: Puccinia recondita—PUCCRT
Assay: Brown Rust of Wheat, in vivo whole plant, 24 Hour Protectant
Conditions: Puccinia; 100 ppm spray, wheat, 24 hour protectant, % control of fungal infection vs untreated plants; read-out: PUCCRT in vivo 1 Day Protectant

For `COCCC(=O)Oc1c(OC)ccnc1C(=O)Nc1ccc(C(=O)Nc2cccc(C(F)(F)F)c2)cc1` [Compound 713], which pest or weed control at 100 ppm is on record?
The pest or weed control at 100 ppm was under 25%.

Same assay, conditions: Puccinia; 100 ppm spray, wheat, 24 hour protectant; control of fungal infection vs untreated plants; read-out: PUCCRT in vivo 1 Day Protectant

Which pest or weed control at 100 ppm does the source give for `COc1ccnc(C(=O)Nc2cccc(Sc3ccc(C(F)(F)F)cc3)c2)c1O` [Compound 444] here?
Its pest or weed control at 100 ppm is 25 to 74%.

Same assay, conditions: Puccinia; wheat plants sprayed at 100 ppm, inoculated after 24 hours; control of fungal infection vs untreated plants; read-out: PUCCRT in vivo 1 Day Protectant

With `Cc1nc(O)c(C(=O)N[C@H]2COC(=O)[C@H](Cc3ccccc3)[C@@H](OC(=O)C(C)C)[C@H](C)OC2=O)nc1C` [Compound 536] as the compound, how does the pest or weed control at 100 ppm read?
The pest or weed control at 100 ppm was 25 to 74%.

Test system: Phytophthora infestans—PHYTIN
Assay: whole plant or invertebrate
Format: in vivo
Conditions: Phytophthora, in Solanum lycopersicum, 24 h, read-out: PHYTIN in vivo 1 Day Protectant

Which pest or weed control at 100 ppm does the source give for `COc1ccnc(C(=O)Nc2cccc(Sc3ccc(C(F)(F)F)cc3)c2)c1O` [Compound 444] here?
The pest or weed control at 100 ppm was under 25%.

With `Cc1nc(O)c(C(=O)N[C@H]2COC(=O)[C@H](Cc3ccccc3)[C@@H](OC(=O)C(C)C)[C@H](C)OC2=O)nc1C` [Compound 536] as the compound, how does the pest or weed control at 100 ppm read?
The pest or weed control at 100 ppm was under 25%.

For `COCCC(=O)Oc1c(OC)ccnc1C(=O)Nc1ccc(C(=O)Nc2cccc(C(F)(F)F)c2)cc1` [Compound 713], which pest or weed control at 100 ppm is on record?
Its pest or weed control at 100 ppm is under 25%.

Test system: Erysiphe graminis—ERYSGT
Assay: Powdery Mildew of Wheat, in vivo whole plant, 24 Hour Protectant
Conditions: Erysiphe; 100 ppm spray, wheat, 24 hour protectant, % control of fungal infection vs untreated plants; read-out: ERYSGT in vivo 1 Day Protectant

With `COCCC(=O)Oc1c(OC)ccnc1C(=O)Nc1ccc(C(=O)Nc2cccc(C(F)(F)F)c2)cc1` [Compound 713] as the compound, how does the pest or weed control at 100 ppm read?
The pest or weed control at 100 ppm was under 25%.

Same assay, conditions: Erysiphe; 100 ppm spray, wheat, 24 hour protectant; control of fungal infection vs untreated plants; read-out: ERYSGT in vivo 1 Day Protectant

Which pest or weed control at 100 ppm does the source give for `COc1ccnc(C(=O)Nc2cccc(Sc3ccc(C(F)(F)F)cc3)c2)c1O` [Compound 444] here?
Its pest or weed control at 100 ppm is under 25%.

Same assay, conditions: Erysiphe; wheat plants sprayed at 100 ppm, inoculated after 24 hours; control of fungal infection vs untreated plants; read-out: ERYSGT in vivo 1 Day Protectant

Which pest or weed control at 100 ppm does the source give for `Cc1nc(O)c(C(=O)N[C@H]2COC(=O)[C@H](Cc3ccccc3)[C@@H](OC(=O)C(C)C)[C@H](C)OC2=O)nc1C` [Compound 536] here?
The pest or weed control at 100 ppm was under 25%.

Test system: Mycosphaerella graminicola (Septoria tritici—SEPTTR)
Assay: In vitro fungal growth inhibition, Mycosphaerella graminicola (SEPTTR)
Format: cell-based
Conditions: Zymoseptoria tritici; 25 ppm in growth medium; read-out: SEPTTR in vitro Growth Inhibition

With `COc1ccnc(C(=O)Nc2cccc(Sc3ccc(C(F)(F)F)cc3)c2)c1O` [Compound 444] as the compound, how does the inhibition at 25 ppm read?
The inhibition at 25 ppm was under 80%.

Which inhibition at 25 ppm does the source give for `COCCC(=O)Oc1c(OC)ccnc1C(=O)Nc1ccc(C(=O)Nc2cccc(C(F)(F)F)c2)cc1` [Compound 713] here?
The inhibition at 25 ppm was under 80%.

Same assay, conditions: Zymoseptoria tritici; 25 ppm in the growth medium; read-out: SEPTTR in vitro Growth Inhibition

With `Cc1nc(O)c(C(=O)N[C@H]2COC(=O)[C@H](Cc3ccccc3)[C@@H](OC(=O)C(C)C)[C@H](C)OC2=O)nc1C` [Compound 536] as the compound, how does the inhibition at 25 ppm read?
Its inhibition at 25 ppm is over 80%.
